The values that follow come from patent US6515012B2, “Process for the preparation of zofenopril calcium salt” (Menarini Ricerche S.p.A., priority 1998, dated 2003).

Where a name gives a salt, the structure may show the parent alone.

Data set [1] is described as follows: Stability to micronisation of Polymorphs (grinding in ball microniser, DRX). It is filed as physicochemical. The settings on record: Retsch MM2 ball microniser, 200 mg sample, 80 vibrations/min, 15 minutes.
The conditions of data set [2]: tablets prepared with polymorph A or with polymorph B; J. Pharmaceutical & Biomedical Analysis, 1994, Vol 12, pp. 173-177; cited from earlier work.
Data set [3] is described as follows: resistance to compression and/or micronisation. Type of data set: physicochemical. As to conditions: polymorph A compared with polymorph B.
Data set [4] in a line: storage stability of zofenopril calcium salt samples (interconversion to polymorph B, by DRX). Type of data set: physicochemical. The source says: Determination of polymorph B in the samples of Polymoroh A : The percentage of polymorph B in samples of Polymorph A can easily be evaluated by observation of the X diffractograms (DRX). The region used for the analysis was that for 2θ ranging from 15 to 25. In this region, three peaks were evidenced, respectively I with […], II with 2θ=19.2 and III with 20θ=19.9, and the relative intensities I/III and II/III of various Polymorph A samples containing known amounts of Polymorph B (not above 30%) were measured. A regression equation was thereby obtained, which correlates the intensities of peaks I and II relating to peak III with the percentage of polymorph B present in the samples. The precision and the accuracy of the results obtainable with the above mentioned equation were good and, based on the confidence limits, the minimum amount of polymorph B detectable in polymorph A could be evaluated to be <7%. FIG. 4 reports the relationship between the above mentioned values based on the thus calculated regression equation and the observed values.

Take `C[C@H](CSC(=O)c1ccccc1)C(=O)N1C[C@@H](Sc2ccccc2)C[C@H]1C(=O)O` [polymorph B]: the “crystalline structure after grinding, according to DRX” value in data set [1] was “completely loses its crystalline structure”. The “dissolution rate of tablets” value in data set [2] is given as “could not be differentiated”.
Regarding `C[C@H](CSC(=O)c1ccccc1)C(=O)N1C[C@@H](Sc2ccccc2)C[C@H]1C(=O)O` [polymorph A], in data set [1], the “crystalline structure after grinding, according to DRX” value is recorded as “still keeps the crystalline structure”. Besides, in data set [3], the “resistance to compression and/or micronisation” value is given as “more resistant to compression and/or micronisation than polymorph B”. The “dissolution rate of tablets” value in data set [2] is recorded as “could not be differentiated”.
For the compound `C[C@H](CSC(=O)c1ccccc1)C(=O)N1C[C@@H](Sc2ccccc2)C[C@H]1C(=O)O` [zofenopril calcium salt, [(4S)-(2S)-3-(benzoylthio)-2-methylpropionyl-4 (phenylthio)-L-proline] calcium salt], the “interconversion to polymorph B” value in data set [4] (samples obtained according to the process of the invention) is listed as “no interconversion to polymorph B”. Further, the “percentage of polymorph B after storage” value in data set [4] (stored for 3 years at 25° C. and 60% relative humidity) was “below 7%”; in data set [4] (stored for 6 months at 40° C. and 75% relative humidity), “below 7%”.
